Patent US8796415B2, “Inhibitors of guanine exchange factors and their use as anticancer drugs” (Centre National de la Recherche Scientifique, priority 2009, dated 2014)
Ends that are not written are not given here.

How the values were obtained:
[1] = tested on: Tgat-expressing NIH3T3 cells; assay: Focus formation assay of Tgat-expressing NIH3T3 cells; type: cell-based; details: GST-tagged peptide stably co-expressed; after 3 weeks of culture
Description: FIG. 9A represents the focus formation assay of NIH3T3 cells, stably expressing GFP or GFP-Tgat, together with GST or GST-TRIPE32G.
FIG. 9B represents the quantification of three independent focus formation assays. The number of foci formed by Tgat/GST expressing cells was set to 100%.
NIH3T3 cells were maintained as described previously (Sirvent et al., 2007). Transient transfection experiments were performed using the Jet PEI reagent, according to the manufacturer's protocol (QBiogene Inc.). NIH3T3 cell lines stably expressing GFP-Tgat, GFP-TgatL190E, or GFP-Trio, with or without the GST-TRIP peptides, were generated as follows: the indicated retroviral constructs were transfected into BOSC packaging cells, using the Lipofectamine reagent (Invitrogen Inc.). Forty-eight hours after transfection, virus containing supernatants were collected and used to infect NIH3T3 cells. Infected cells were selected with 6 μg/mL puromycin and/or 1 mg/mL G418 and stable transfectants were pooled after selection. Tgat or TRIP mRNA levels in the different cell lines were monitored by RTPCR, and protein expression levels by Western blot analysis using a polyclonal anti-GFP antibody (Toney Pines Laboratories). […] After staining with Crystal Violet (1%), plates were photographed and foci were scored using the Metamorph software. […]

[2] = tested on: NIH3T3 cells stably expressing GFP-Tgat; assay: Tumor formation in Balb/c nude mice grafted with NIH3T3 cells expressing Tgat; type: in vivo
Description: FIG. 10A represents tumor formation in Balb/c nude mice. NIH3T3 cells stably expressing GFP-Tgat/GST or GFP-Tgat/GSTTRIP E32G were injected subcutaneously into the flanks of Balb/c nude mice and tumor volume was measured every week. The graph is representative of the three independent assays that were performed.
FIG. 10B represents the tumor weights (in grams) after the experiments. Ten weeks post graft, mice were euthanised, tumors were excised and weighed, and the mean tumor weight was plotted on the graph. (*) A paired Student's t-test was performed, matching the samples for each mouse, and the P value was 0.019. Error bars represent standard deviation in all graphs.
Female Balb/c nu/nu mice were purchased from Charles River France and used at 6-8 weeks of age. 12 Balb/c nu/nu mice were subcutaneously grafted with 2×10^6 cells of each cell line on both sides (Tgat on the left and Tgat+TRIPE32G on the right flank of the leg). The appearance of tumors was scored visually every week. 10 weeks post graft, mice were euthanized and tumors excised and weighed. mRNA and protein levels in the tumors were verified by RT-PCR and Western blot (data not shown).

p115RhoGEF = molecular target: T1, p115RhoGEF (Homo sapiens, UniProt Q92888); details: shown previously (Schmidt et al., 2002 and unpublished results); cited from earlier work
T1 construct: GST (N); made in house; host or cells: baculovirus system
T1 sequence (Q92888 1-912): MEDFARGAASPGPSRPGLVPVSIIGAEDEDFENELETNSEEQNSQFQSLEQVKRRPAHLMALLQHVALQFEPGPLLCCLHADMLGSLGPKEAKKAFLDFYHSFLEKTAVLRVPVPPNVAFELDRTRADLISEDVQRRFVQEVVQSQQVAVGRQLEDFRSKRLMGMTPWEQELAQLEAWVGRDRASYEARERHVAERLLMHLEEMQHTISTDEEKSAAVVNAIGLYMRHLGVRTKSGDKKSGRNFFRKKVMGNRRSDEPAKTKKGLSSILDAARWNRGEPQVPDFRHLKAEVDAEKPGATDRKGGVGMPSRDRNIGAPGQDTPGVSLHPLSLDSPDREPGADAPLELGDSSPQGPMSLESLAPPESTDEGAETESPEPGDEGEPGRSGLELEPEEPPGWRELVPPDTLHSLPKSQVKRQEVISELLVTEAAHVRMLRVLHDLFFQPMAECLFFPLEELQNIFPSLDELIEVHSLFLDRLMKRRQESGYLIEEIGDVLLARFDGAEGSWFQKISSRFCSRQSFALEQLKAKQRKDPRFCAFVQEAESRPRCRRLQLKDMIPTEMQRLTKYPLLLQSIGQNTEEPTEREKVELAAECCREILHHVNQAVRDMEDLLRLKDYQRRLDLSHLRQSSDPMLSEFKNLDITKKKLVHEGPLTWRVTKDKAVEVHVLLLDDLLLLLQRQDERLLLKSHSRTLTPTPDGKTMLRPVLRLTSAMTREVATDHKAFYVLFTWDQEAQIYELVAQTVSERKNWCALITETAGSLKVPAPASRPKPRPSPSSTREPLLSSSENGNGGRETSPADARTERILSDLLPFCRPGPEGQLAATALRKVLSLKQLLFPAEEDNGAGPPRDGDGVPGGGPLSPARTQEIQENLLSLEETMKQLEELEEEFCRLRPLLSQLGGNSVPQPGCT

Dbl = details: shown previously (Schmidt et al., 2002 and unpublished results); cited from earlier work
Dbl, sequence (P10911 495-809 limits assumed): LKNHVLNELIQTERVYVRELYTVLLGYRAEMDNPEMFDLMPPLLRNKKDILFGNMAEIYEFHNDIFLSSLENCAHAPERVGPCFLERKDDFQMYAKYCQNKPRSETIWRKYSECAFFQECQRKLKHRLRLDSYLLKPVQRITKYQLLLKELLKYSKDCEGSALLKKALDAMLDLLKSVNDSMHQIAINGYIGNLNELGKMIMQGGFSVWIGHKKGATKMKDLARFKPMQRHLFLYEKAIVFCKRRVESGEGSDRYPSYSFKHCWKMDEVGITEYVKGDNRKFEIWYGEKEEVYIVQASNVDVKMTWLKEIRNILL

p63RhoGEF = molecular target: T2, p63RhoGEF (Homo sapiens, UniProt Q86VW2); details: shown previously (Schmidt et al., 2002 and unpublished results); cited from earlier work
T2 construct: GST-p63RhoGEF (DH domain) and GST-RhoG were purified as described previously; GST (N); made in house
T2 sequence (Q86VW2 160-336 limits assumed): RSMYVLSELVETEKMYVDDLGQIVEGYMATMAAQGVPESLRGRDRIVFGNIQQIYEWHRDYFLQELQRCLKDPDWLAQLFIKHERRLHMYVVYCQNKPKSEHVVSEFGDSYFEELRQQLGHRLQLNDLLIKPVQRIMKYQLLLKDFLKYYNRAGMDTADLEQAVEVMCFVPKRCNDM

PC12 cells = details: Schmidt et al., 2002; cited from earlier work

| Substance | foci in Tgat expressing cells [1] | number of mice with tumors ([2]; 12 mice grafted subcutaneously, peptide co-expressed with Tgat, Tgat alone ten out of twelve) | delay in the formation of tumors ([2]; peptide co-expressed with Tgat, versus Tgat alone) | weight of the tumors ([2]; ten weeks post graft, paired Student's t-test P value 0.019) | activity on p115RhoGEF (p115RhoGEF) | activity on Dbl (Dbl) | activity on p63RhoGEF (p63RhoGEF) | neurite retraction phenotype induced by Trio DH2-PH2 (PC12 cells) |
| --- | --- | --- | --- | --- | --- | --- | --- | --- |
| GST-TRIPE32G (AREGADGAICGYNLATLVMLGPSERVFCPLCGPCSSDIYELM; cysteine pairing not given here; also: GST fusion) | severely reduced | seven | about three | significantly reduced | – | – | – | – |
| AREGADGAICGYNLATLVMLGPSERVFCPLCEPCSSDIYELM [TRIPα] | – | – | – | – | not active | not active | not active | reverting the neurite retraction phenotype |
